According to BindingDB's records for doi:10.1021/jm960097t (Duquesne University, 1996):

Key:
[1] = target: Thymidylate synthase (Streptococcus faecium); experiment: The inhibitory concentration of compound was evaluated on Streptococcus faecium Thymidylate synthase
[2] = target: Thymidylate synthase (Pneumocystis carinii); experiment: The inhibitory concentration of compound was evaluated on Pneumocystis carini Thymidylate synthase

SMILES | IC50 [1] [µM] | IC50 [2] [µM]
Cc1[nH]c2nc(N)[nH]c(=O)c2c1Sc1ccc2ccccc2c1 [2-Amino-6-methyl-5-(naphthalen-2-ylsulfanyl)-3,7-dihydro-pyrrolo[2,3-d]pyrimidin-4-one] | > 25 | 
Cc1[nH]c2nc(N)[nH]c(=O)c2c1Sc1ccncc1 [2-Amino-6-methyl-5-(pyridin-4-ylsulfanyl)-3,7-dihydro-pyrrolo[2,3-d]pyrimidin-4-one] | 29 | 
Cc1[nH]c2nc(N)[nH]c(=O)c2c1Sc1ccccc1 [2-Amino-6-methyl-5-phenylsulfanyl-3,7-dihydro-pyrrolo[2,3-d]pyrimidin-4-one] | > 30 | 60
